Test results reported in PubChem BioAssay (NCI).
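Interpolation was linear, between the two tested concentrations surrounding the appropriate level; five concentrations were tested over 48 hours in 96-well plates. TGI denotes the concentration required for complete inhibition of growth.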

Assays:
Test in all cases: NCI tumour cell line growth inhibition, 48 h
786-0 renal = test system: 786-0 renal
A549 NSCLC = test system: A549 NSCLC
ACHN renal = test system: ACHN renal
CAKI-1 renal = test system: CAKI-1 renal
CCRF-CEM leukemia = test system: CCRF-CEM leukemia
COLO 205 colon = test system: COLO 205 colon
DLD-1 colon = test system: DLD-1 colon
DMS 114 small cell lung = test system: DMS 114 small cell lung
DMS 273 small cell lung = test system: DMS 273 small cell lung
EKVX NSCLC = test system: EKVX NSCLC
HCC-2998 colon = test system: HCC-2998 colon
HCT-116 colon = test system: HCT-116 colon
HL-60(TB) leukemia = test system: HL-60(TB) leukemia
HOP-18 NSCLC = test system: HOP-18 NSCLC
HOP-62 NSCLC = test system: HOP-62 NSCLC
HT29 colon = test system: HT29 colon
IGROV1 ovarian = test system: IGROV1 ovarian
K-562 leukemia = test system: K-562 leukemia
KM20L2 colon = test system: KM20L2 colon
LOX IMVI melanoma = test system: LOX IMVI melanoma
LXFL 529 NSCLC = test system: LXFL 529 NSCLC
M14 melanoma = test system: M14 melanoma
M19-MEL melanoma = test system: M19-MEL melanoma
MALME-3M melanoma = test system: MALME-3M melanoma
MOLT-4 leukemia = test system: MOLT-4 leukemia
NCI-H226 lung = test system: NCI-H226 lung
NCI-H23 lung = test system: NCI-H23 lung
NCI-H460 lung = test system: NCI-H460 lung
NCI-H522 lung = test system: NCI-H522 lung
OVCAR-3 ovarian = test system: OVCAR-3 ovarian
OVCAR-4 ovarian = test system: OVCAR-4 ovarian
OVCAR-5 ovarian = test system: OVCAR-5 ovarian
OVCAR-8 ovarian = test system: OVCAR-8 ovarian
RPMI-8226 leukemia = test system: RPMI-8226 leukemia
RXF 393 renal = test system: RXF 393 renal
SF-268 CNS = test system: SF-268 CNS
SF-295 CNS = test system: SF-295 CNS
SF-539 CNS = test system: SF-539 CNS
SK-MEL-2 melanoma = test system: SK-MEL-2 melanoma
SK-MEL-28 melanoma = test system: SK-MEL-28 melanoma
SK-OV-3 ovarian = test system: SK-OV-3 ovarian
SN12C renal = test system: SN12C renal
SNB-19 CNS = test system: SNB-19 CNS
SNB-75 CNS = test system: SNB-75 CNS
SNB-78 CNS = test system: SNB-78 CNS
SR leukemia = test system: SR leukemia
SW-620 colon = test system: SW-620 colon
TK-10 renal = test system: TK-10 renal
U251 CNS = test system: U251 CNS
UACC-257 melanoma = test system: UACC-257 melanoma
UACC-62 melanoma = test system: UACC-62 melanoma
UO-31 renal = test system: UO-31 renal
XF 498 CNS = test system: XF 498 CNS
HCT-15 colon = test system: HCT-15 colon
KM12 colon = test system: KM12 colon
SK-MEL-5 melanoma = test system: SK-MEL-5 melanoma

Question: How did the TGI (786-0 renal) turn out when `OCC(O)C(O)C(O)c1nn(-c2ccc(Cl)cc2)c2nc3cc(Cl)c(Cl)cc3nc12` (stereo not drawn) was run?
Answer: > 100 µM

Question: What about the TGI (A549 NSCLC) of the same molecule?
Answer: > 100 µM

Question: And the TGI (ACHN renal)?
Answer: > 100 µM

Question: And the TGI (CAKI-1 renal)?
Answer: > 100 µM

Question: What about the TGI (CCRF-CEM leukemia) of the same molecule?
Answer: > 100 µM

Question: What about the TGI (COLO 205 colon) of the same molecule?
Answer: > 100 µM

Question: What about the TGI (DLD-1 colon) of the same molecule?
Answer: > 100 µM

Question: And the TGI (DMS 114 small cell lung)?
Answer: > 100 µM

Question: And the TGI (DMS 273 small cell lung)?
Answer: > 100 µM

Question: What about the TGI (EKVX NSCLC) of the same molecule?
Answer: 67.9 µM

Question: What about the TGI (HCC-2998 colon) of the same molecule?
Answer: > 100 µM

Question: What about the TGI (HCT-116 colon) of the same molecule?
Answer: > 100 µM

Question: What about the TGI (HL-60(TB) leukemia) of the same molecule?
Answer: > 100 µM

Question: And the TGI (HOP-18 NSCLC)?
Answer: > 100 µM

Question: What about the TGI (HOP-62 NSCLC) of the same molecule?
Answer: 71 µM

Question: And the TGI (HT29 colon)?
Answer: > 100 µM

Question: And the TGI (IGROV1 ovarian)?
Answer: > 100 µM

Question: What about the TGI (K-562 leukemia) of the same molecule?
Answer: > 100 µM

Question: And the TGI (KM20L2 colon)?
Answer: > 100 µM

Question: And the TGI (LOX IMVI melanoma)?
Answer: > 100 µM

Question: What about the TGI (LXFL 529 NSCLC) of the same molecule?
Answer: > 100 µM

Question: And the TGI (M14 melanoma)?
Answer: > 100 µM

Question: And the TGI (M19-MEL melanoma)?
Answer: > 100 µM

Question: What about the TGI (MALME-3M melanoma) of the same molecule?
Answer: 71 µM

Question: What about the TGI (MOLT-4 leukemia) of the same molecule?
Answer: > 100 µM

Question: And the TGI (NCI-H226 lung)?
Answer: 58.4 µM

Question: What about the TGI (NCI-H23 lung) of the same molecule?
Answer: 85.1 µM

Question: And the TGI (NCI-H460 lung)?
Answer: > 100 µM

Question: And the TGI (NCI-H522 lung)?
Answer: > 100 µM

Question: And the TGI (OVCAR-3 ovarian)?
Answer: > 100 µM

Question: And the TGI (OVCAR-4 ovarian)?
Answer: > 100 µM

Question: And the TGI (OVCAR-5 ovarian)?
Answer: > 100 µM

Question: What about the TGI (OVCAR-8 ovarian) of the same molecule?
Answer: > 100 µM

Question: And the TGI (RPMI-8226 leukemia)?
Answer: > 100 µM

Question: And the TGI (RXF 393 renal)?
Answer: 72.4 µM

Question: And the TGI (SF-268 CNS)?
Answer: > 100 µM

Question: What about the TGI (SF-295 CNS) of the same molecule?
Answer: > 100 µM

Question: And the TGI (SF-539 CNS)?
Answer: > 100 µM

Question: What about the TGI (SK-MEL-2 melanoma) of the same molecule?
Answer: > 100 µM

Question: What about the TGI (SK-MEL-28 melanoma) of the same molecule?
Answer: > 100 µM

Question: And the TGI (SK-OV-3 ovarian)?
Answer: 58.6 µM

Question: And the TGI (SN12C renal)?
Answer: > 100 µM

Question: And the TGI (SNB-19 CNS)?
Answer: > 100 µM

Question: What about the TGI (SNB-75 CNS) of the same molecule?
Answer: 11.1 µM

Question: What about the TGI (SNB-78 CNS) of the same molecule?
Answer: 76.9 µM

Question: And the TGI (SR leukemia)?
Answer: > 100 µM

Question: What about the TGI (SW-620 colon) of the same molecule?
Answer: > 100 µM

Question: And the TGI (TK-10 renal)?
Answer: > 100 µM

Question: And the TGI (U251 CNS)?
Answer: > 100 µM

Question: And the TGI (UACC-257 melanoma)?
Answer: > 100 µM

Question: And the TGI (UACC-62 melanoma)?
Answer: > 100 µM

Question: What about the TGI (UO-31 renal) of the same molecule?
Answer: > 100 µM

Question: And the TGI (XF 498 CNS)?
Answer: 27.4 µM

Question: Which results are given for `CC1(C)Cc2c(C#N)c(N)c3c(c2CO1)C(=O)OC3=O`?
Answer: TGI (A549 NSCLC): > 100 µM; TGI (ACHN renal): > 100 µM; TGI (CAKI-1 renal): > 100 µM; TGI (CCRF-CEM leukemia): > 100 µM; TGI (COLO 205 colon): > 100 µM; TGI (DMS 114 small cell lung): > 100 µM; TGI (DMS 273 small cell lung): > 100 µM; TGI (EKVX NSCLC): > 100 µM; TGI (HCC-2998 colon): > 100 µM; TGI (HCT-116 colon): > 100 µM; TGI (HCT-15 colon): > 100 µM; TGI (HL-60(TB) leukemia): > 100 µM; TGI (HOP-18 NSCLC): > 100 µM; TGI (HOP-62 NSCLC): > 100 µM; TGI (HT29 colon): > 100 µM; TGI (IGROV1 ovarian): > 100 µM; TGI (K-562 leukemia): > 100 µM; TGI (KM12 colon): > 100 µM; TGI (KM20L2 colon): > 100 µM; TGI (LOX IMVI melanoma): > 100 µM; TGI (LXFL 529 NSCLC): > 100 µM; TGI (M14 melanoma): > 100 µM; TGI (M19-MEL melanoma): > 100 µM; TGI (MALME-3M melanoma): > 100 µM; TGI (MOLT-4 leukemia): > 100 µM; TGI (NCI-H226 lung): > 100 µM; TGI (NCI-H23 lung): > 100 µM; TGI (NCI-H460 lung): > 100 µM; TGI (NCI-H522 lung): > 100 µM; TGI (OVCAR-3 ovarian): > 100 µM; TGI (OVCAR-4 ovarian): > 100 µM; TGI (OVCAR-5 ovarian): > 100 µM; TGI (OVCAR-8 ovarian): > 100 µM; TGI (RPMI-8226 leukemia): > 100 µM; TGI (RXF 393 renal): > 100 µM; TGI (SF-268 CNS): > 100 µM; TGI (SF-539 CNS): > 100 µM; TGI (SK-MEL-2 melanoma): > 100 µM; TGI (SK-MEL-28 melanoma): > 100 µM; TGI (SK-MEL-5 melanoma): > 100 µM; TGI (SK-OV-3 ovarian): > 100 µM; TGI (SN12C renal): > 100 µM; TGI (SNB-19 CNS): > 100 µM; TGI (SR leukemia): > 100 µM; TGI (SW-620 colon): > 100 µM; TGI (TK-10 renal): > 100 µM; TGI (U251 CNS): > 100 µM; TGI (UACC-62 melanoma): > 100 µM; TGI (UO-31 renal): > 100 µM; TGI (XF 498 CNS): > 100 µM
